Measurements as given in patent US20210113586A1, “NEW USE AND METHODS OF MODULATING IMMUNE RESPONSES” (DIAMYD MEDICAL AB, priority 2018, published 2021).

Key:
[1] = system: PBMCs from ND individuals; conditions: Example 1, FIG. 1C; PBMCs of 15 healthy donors; 100 nM GABA
Description: Peripheral Blood Mononuclear cells (PBMCs) are isolated from blood from donors diagnosed with Type-1 diabetes and healthy controls. Alternatively, CD4-positive cells (T-cells) are further isolated from PBMCs by e.g. MACS beads, FACS or similar technology. […] A reasonable replication, such as 3 cultures of each condition, is performed. A normalized proliferation value for each culture is then calculated by a standard proliferation measurement method, such as by CFSE staining or radioactive thymidine incorporation (requiring additional factors be added during culture) or by staining for proliferation markers.
In the FIG. 1, the proliferation of cells retrieved from 13 T1D subjects and 15 healthy controls were inspected. […] A normalized proliferation index was calculated for each culture.
The proliferation of freshly isolated human PBMCs or CD4^+ T cells was evaluated with MTT (3-(4,5-Dimethylthiazol-2-yl)-2,5-Diphenyltetrazolium Bromide) assay (Ring et al., 2012). Cells were suspended in complete medium (RPMI 1640 supplemented with 2 mM glutamine, 25 mM HEPES, 10% heat inactivated fetal bovine serum, 100 U/ml penicillin, 10 mg/ml streptomycin, 5 mM R-mercaptoethanol) in a concentration 1 million cells per milliliter. […] The formazan crystal pellet was dissolved in DMSO and the plate was read within 10 min using a Multiskan MS plate reader (Labsystems) at 550 nm. […]

[2] = system: GABAA receptors; test: Patch-clamp single-channel current recording in CD4+ T cells; type: cell-based, human; conditions: GABA 100 or 500 nM; n=54 cells; FIG. 3i
Description: GABA-activated currents were recorded by the patch-clamp technique as previously described (Bjurstom et al., 2008, Jin et al., 2011a). Extracellular recording solution contained (in mM): 145 NaCl, 3 KCl, 1 CsCl, 1 CaCl2, 1 MgCl2, 10 glucose and 10 TES; the pH was adjusted to 7.4 with NaOH. To record in the whole-cell configuration, the pipette solution contained (in mM): 136 CsCl, 20 KCl, 1 MgCl2, 3 MgATP and 10 TES; pH was adjusted to 7.3 with CsOH. The pipette solution for the cell-attached configuration contained (in mM): 69 NaCl, 5 KCl, 75 CsCl, 1 CaCl2, 1 MgCl2 and 10 TES; pH was adjusted to 7.4 with NaOH. […] The pipette potential (Vp) was −80 mV (hyperpolarizing) in the whole-cell configuration and −60 mV (depolarizing) in the cell-attached configuration.

[3] = system: responder CD4+ T cells; test: Multiplex PEA of cytokines released into culture medium by responder CD4+ T cells; type: cell-based, human
Description: The proliferation of freshly isolated human PBMCs or CD4^+ T cells was evaluated with MTT (3-(4,5-Dimethylthiazol-2-yl)-2,5-Diphenyltetrazolium Bromide) assay (Ring et al., 2012). Cells were suspended in complete medium (RPMI 1640 supplemented with 2 mM glutamine, 25 mM HEPES, 10% heat inactivated fetal bovine serum, 100 U/ml penicillin, 10 mg/ml streptomycin, 5 mM R-mercaptoethanol) in a concentration 1 million cells per milliliter. The assay was performed in 96-well plates in duplicates or triplicates, where each well was pre-coated with 3 μg/ml anti-CD3 antibody for 3-5 h at 37° C. Each well was loaded with 100,000 cells. Drugs were added to the wells at the relevant concentrations. The plate was incubated for 68 h at 37° C. (95% O2, 5% CO2) and then, a media-soluble tetrazolium dye MTT was added to a final concentration of 1 mM after which the plate was incubated for additional 4 h. The plate was then centrifuged at 2,000 RPM for 10 min to pellet the insoluble purple formazan crystals. The supernatant culture media was collected, stored at −80° C. and used for analysis of cytokines using the multiplex proximity extension assay (PEA). The formazan crystal pellet was dissolved in DMSO and the plate was read within 10 min using a Multiskan MS plate reader (Labsystems) at 550 nm. The optical density value was used as the proliferation index value. Drugs were purchased from Sigma-Aldrich or Tocris (Bristol, UK).
Plasma samples, and culture media samples that were collected from plate wells at the end of the proliferation assay, were analyzed by multiplex PEA with an Olink Inflammation […] panel, targeting 92 proteins related to inflammation (Olink Proteomics, Uppsala, Sweden) as previously described (Edvinsson et al., 2017, Assarsson et al., 2014, Larsson et al., 2015, Larssen et al., 2017). Briefly, 1 μl of sample (plasma samples or cell culture media samples) or negative control was mixed with 3 μl probe solution containing a set of 92 paires DNA-oligonucleotide-conjugated antibodies. Upon recognition of a target protein by a pair of probes, the DNA oligonucletodies on the antibodies are brought in proximity and hybridize to each other, followed by enzymatic DNA polymerization to form a new DNA molecule. The newly formed DNA molecule is then amplified and quantified using a microfluidic real-time qPCR, BioMark™ HD (Fluidigm, South San Francisco, Calif., USA). The generated quantification cycle (Cq) values are normalized against spiked-in controls to convert Cq values to Normalized Protein eXpression (NPX) value on log2 scale. NPX is an arbitrary unit, which is positively correlated to protein concentration. These NPX data were then converted to linear data, using the formula 2^NPX, prior to further statistical analysis. Limit of detection (LOD) for each protein was defined as three standard deviations above the background. Proteins with levels below LOD were excluded from further data analysis.

[4] = GABA 100 nM, responder CD4+ T cells, normalized to control
[5] = GABA 500 nM, responder CD4+ T cells, normalized to control

## NCCCC(=O)O [GABA, gamma-aminobutyric acid]
[1]
  proliferation in the presence of GABA: did not proliferate differently
[2]
  GABAA single-channel currents: activated
[3]; 100 nM GABA
  number of cytokines whose release was significantly decreased: 27 cytokines
[3]; 500 nM GABA
  number of cytokines whose release was significantly decreased: 25 cytokines
[3]; [4]
  4E-BP1 in culture medium, % Mean: 67.1%
  ADA in culture medium, % Mean: 79.3%
  CASP-8 in culture medium, % Mean: 66.3%
  CCL19 in culture medium, % Mean: 68.7%
  CCL20 in culture medium, % Mean: 61.5%
  CSCP1 in culture medium, % Mean: 60.6%
  CSF-1 in culture medium, % Mean: 84.2%
  CXCL10 in culture medium, % Mean: 62.7%
  CXCL11 in culture medium, % Mean: 69.1%
  DNER in culture medium, % Mean: 94.6%
  Flt3L in culture medium, % Mean: 79.3%
  IL-6 in culture medium, % Mean: 71.6%
  IL-13 in culture medium, % Mean: 69.9%
  IL-18R1 in culture medium, % Mean: 76.1%
  IL-24 in culture medium, % Mean: 71.8%
  LAP TGF-beta-1 in culture medium, % Mean: 79.6%
  LIF in culture medium, % Mean: 66.9%
  MCP-1 in culture medium, % Mean: 76.9%
  OPG in culture medium, % Mean: 70.5%
  OSM in culture medium, % Mean: 76.4%
  STAMPB in culture medium, % Mean: 68.6%
  TNFRSF9 in culture medium, % Mean: 86.3%
  TNFSF14 in culture medium, % Mean: 70.6%
  TRAIL in culture medium, % Mean: 75.9%
  TRANCE in culture medium, % Mean: 89.3%
  μPA in culture medium, % Mean: 78.9%
[3]; [5]
  4E-BP1 in culture medium, % Mean: 50.6%
  CASP-8 in culture medium, % Mean: 61.4%
  CCL19 in culture medium, % Mean: 59.9%
  CCL20 in culture medium, % Mean: 66.0%
  CD40 in culture medium, % Mean: 77.8%
  CDCP1 in culture medium, % Mean: 44.3%
  CXCL1 in culture medium, % Mean: 72.2%
  CXCL5 in culture medium, % Mean: 66.0%
  CXCL9 in culture medium, % Mean: 62.2%
  CXCL10 in culture medium, % Mean: 60.6%
  CXCL11 in culture medium, % Mean: 66.6%
  DNER in culture medium, % Mean: 68.6%
  IFM-gamma in culture medium, % Mean: 73.2%
  IL-5 in culture medium, % Mean: 76.0%
  IL-8 in culture medium, % Mean: 81.2%
  IL-12B in culture medium, % Mean: 69.4%
  IL-13 in culture medium, % Mean: 83.0%
  IL-18R1 in culture medium, % Mean: 85.8%
  OPG in culture medium, % Mean: 66.4%
  SCF in culture medium, % Mean: 61.8%
  STAMPB in culture medium, % Mean: 57.8%
  TNF in culture medium, % Mean: 47.8%
  TNFB in culture medium, % Mean: 69.0%
  TNFSF14 in culture medium, % Mean: 60.0%
  μPA in culture medium, % Mean: 68.0%
[3]; responder group, concentration-dependent (100, 500 nM)
  number of cytokines whose secretion was decreased in total: 37 cytokines
